{"source": "patent US20160128321A1", "about": "“Ladder-Frame Polyether Conjugates” (priority 2010, published 2016)", "key": {"rat brain synaptosomes": {"tested_on": "rat brain synaptosomes", "assay": "Receptor binding assays"}, "MDCK": {"tested_on": "MDCK", "design": "key to the marks not given beside the values"}, "NL20": {"tested_on": "NL20", "design": "key to the marks not given beside the values"}, "MCF7": {"tested_on": "MCF7", "design": "key to the marks not given beside the values"}, "[1]": {"settings": "SJCRH30 cells, 400 nM, 1 hour at 37° C., 20× objective, Example 15C"}}, "note": "Where two headings read alike, the source gives them in different places."}
{"smiles": "CN(C)c1ccc2c(-c3cc(C(=O)[O-])ccc3C(=O)O)c3ccc(=[N+](C)C)cc-3oc2c1", "note": "[Example 6-TAMRA, 6-carboxytetramethylrhodamine]", "values": [{"measurement": "level of fluorescence", "setting": "SJCRH30; [1]", "value": "−"}]}
{"smiles": "C=C/C=C\\CC[C@H]1O[C@H]2CC[C@@]3(C)O[C@H]4[C@@H](O)C[C@@]5(C)O[C@@H](CC/C=C(C)/C(C)=C/C=O)[C@@H](C)C[C@H]5O[C@@H]4C[C@@H]3O[C@@H]2CC[C@@]1(C)O", "note": "[brevenal]", "values": [{"measurement": "affinity (binding to rat brain synaptosomes)", "setting": "rat brain synaptosomes; parent compound, first value printed for brevenal", "value": "400 to 800", "unit": "nM"}]}
{"smiles": "C=C(C=O)C[C@@H]1C[C@H](O)[C@]2(C)O[C@@H]3C[C@@H]4O[C@@H]5C[C@]6(C)O[C@]7(C)CC[C@@H]8O[C@@H]9C[C@]%10(C)O[C@@H]%11C(C)=CC(=O)O[C@H]%11C[C@H]%10O[C@H]9C[C@@H](C)[C@H]8O[C@H]7C[C@H]6O[C@H]5C/C=C\\[C@H]4O[C@H]3C[C@H]2O1", "note": "[brevetoxin]", "values": [{"measurement": "affinity (binding to rat brain synaptosomes)", "setting": "rat brain synaptosomes", "value": "2-10 nm"}]}
{"smiles": "COc1cccc2c1C(=O)c1c(O)c3c(c(O)c1C2=O)C[C@@](O)(C(C)=O)C[C@@H]3O[C@H]1C[C@H](N)[C@H](O)[C@H](C)O1", "note": "[Daunorubicin]", "values": [{"measurement": "level of fluorescence", "setting": "SJCRH30; [1]", "value": "−"}]}
{"smiles": "Cc1cc(C)n2c1C=C1C=CC(CCC(=O)NN)=[N+]1[B-]2(F)F", "note": "[BODIPY ®, 4,4-difluoro-5,7-dimethyl-4-bora-3a,4a-diaza-s-indacene-3-propionic acid, hydrazide]", "values": [{"measurement": "level of fluorescence", "setting": "CHO-K1", "value": "−"}, {"measurement": "level of fluorescence", "setting": "SJCRH30", "value": "+"}, {"measurement": "level of fluorescence", "setting": "HEK293", "value": "−"}, {"measurement": "level of fluorescence", "setting": "T47D", "value": "+"}, {"measurement": "level of fluorescence", "setting": "A549", "value": "−"}, {"measurement": "level of fluorescence", "setting": "MDCK", "value": "++"}, {"measurement": "level of fluorescence", "setting": "NL20", "value": "++"}, {"measurement": "level of fluorescence", "setting": "DMS-114", "value": "−"}, {"measurement": "level of fluorescence", "setting": "184B5", "value": "+"}, {"measurement": "level of fluorescence", "setting": "BT549", "value": "+"}, {"measurement": "level of fluorescence", "setting": "MCF7", "value": "++"}]}
